# Results published in PubChem BioAssay (NCI).
#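 Five compound concentrations were applied to cells in 96-well plates for 48 hours; endpoints were derived by simple linear interpolation of the resulting dose-response curve. Here, GI50 denotes the concentration required for 50% inhibition of growth. TGI: concentration producing complete growth inhibition.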
# Legend:
# Assay in all cases: NCI tumour cell line growth inhibition, 48 h
# IGROV1 ovarian = test system: IGROV1 ovarian
# KM12 colon = test system: KM12 colon
# MCF7 breast = test system: MCF7 breast
# MDA-MB-435 = test system: MDA-MB-435
# NCI-H23 lung = test system: NCI-H23 lung
# RXF 393 renal = test system: RXF 393 renal
# SF-268 CNS = test system: SF-268 CNS
# SK-MEL-2 melanoma = test system: SK-MEL-2 melanoma
# U251 CNS = test system: U251 CNS
# UO-31 renal = test system: UO-31 renal
SMILES,GI50 (IGROV1 ovarian),TGI (IGROV1 ovarian),GI50 (KM12 colon),TGI (KM12 colon),GI50 (MCF7 breast),TGI (MCF7 breast),GI50 (MDA-MB-435),TGI (MDA-MB-435),GI50 (NCI-H23 lung),TGI (NCI-H23 lung),GI50 (RXF 393 renal),TGI (RXF 393 renal),GI50 (SF-268 CNS),TGI (SF-268 CNS),GI50 (SK-MEL-2 melanoma),TGI (SK-MEL-2 melanoma),GI50 (U251 CNS),TGI (U251 CNS),GI50 (UO-31 renal),TGI (UO-31 renal)
COc1cc(/C=C\[N+](=O)[O-])ccc1O,2.61 µM,6.97 µM,4.93 µM,17.3 µM,1.63 µM,4.28 µM,2.16 µM,5.98 µM,3.34 µM,11.4 µM,1.91 µM,3.48 µM,3.44 µM,12.8 µM,2.8 µM,10.4 µM,2.99 µM,10.6 µM,1.48 µM,3.25 µM
Cc1cc2nc3c4cc(Cl)ccc4n(CCN(C)C)c3nc2cc1C,1.35 µM,3.86 µM,1.55 µM,3.17 µM,1.06 µM,2.49 µM,1.69 µM,3.19 µM,1.65 µM,3.95 µM,1.59 µM,3.32 µM,1.93 µM,5.29 µM,2.08 µM,4.45 µM,1.43 µM,3.14 µM,0.389 µM,3.35 µM
Cc1nn(-c2ccc(S(=O)(=O)[O-])cc2)c([O-])c1N=[N+](C)c1ccc(-c2ccc(N=Nc3ccc4c(S(=O)(=O)[O-])cc(S(=O)(=O)[O-])c(N)c4c3[O-])c([O-])c2)cc1[O-].[Cu+2].[Cu+2].[Na+],> 100 µM,> 100 µM,> 100 µM,> 100 µM,> 100 µM,> 100 µM,> 100 µM,> 100 µM,> 100 µM,> 100 µM,> 100 µM,> 100 µM,> 100 µM,> 100 µM,> 100 µM,> 100 µM,> 100 µM,> 100 µM,3.19 µM,> 100 µM
N/C(CC(=O)Nc1cc(C(F)(F)F)ccc1Cl)=N\O,–,> 100 µM,–,> 100 µM,–,> 100 µM,–,> 100 µM,–,> 100 µM,–,> 100 µM,–,> 100 µM,–,> 100 µM,–,> 100 µM,–,> 100 µM
CN(C)CC(=O)N1CCC(c2ccc(NC(=O)c3ncc(C#N)[nH]3)c(C3=CCCCC3)c2)CC1,7.48 µM,25.7 µM,0.354 µM,13.8 µM,3.37 µM,16.9 µM,2.99 µM,12.6 µM,5.51 µM,19.5 µM,3.25 µM,14.2 µM,10.4 µM,24.2 µM,6.83 µM,20.3 µM,4.66 µM,16.9 µM,3.61 µM,15 µM
COc1ccc(-c2nn(-c3cccc(Cl)c3)cc2C2CC(c3ccccc3)=NN2C(C)=O)cc1 (stereo not drawn),13.7 µM,> 100 µM,> 100 µM,> 100 µM,> 100 µM,> 100 µM,> 100 µM,> 100 µM,10.1 µM,> 100 µM,6.49 µM,30.8 µM,3.13 µM,14.2 µM,4.97 µM,22.6 µM,3.15 µM,14.9 µM,6.36 µM,> 100 µM
COc1cc(-n2cc(-c3ccc(Cl)c(Cl)c3)nc2SCc2ccccc2)cc(OC)c1OC,> 100 µM,> 100 µM,> 100 µM,> 100 µM,> 100 µM,> 100 µM,> 100 µM,> 100 µM,> 100 µM,> 100 µM,92.5 µM,> 100 µM,> 100 µM,> 100 µM,> 100 µM,> 100 µM,> 100 µM,> 100 µM,> 100 µM,> 100 µM
C[C@@H]1CC[C@@H]2[C@@H]1[C@H](OC(=O)/C=C/c1ccccc1)[C@]1(c3ccccc3)C[C@@H](OC(=O)CO)[C@@]2(C)O1,17 µM,44.5 µM,15.2 µM,38.1 µM,9.19 µM,26.5 µM,14.9 µM,33.2 µM,15 µM,35.9 µM,0.252 µM,13.7 µM,10.4 µM,37.7 µM,19.6 µM,38.3 µM,14.2 µM,29.3 µM,0.154 µM,0.305 µM
CC1(C)N=C(N)N=C(N)N1c1ccc(CCCCc2ccc(S(=O)(=O)F)cc2)cc1,0.445 µM,23.5 µM,0.601 µM,13 µM,0.425 µM,14.2 µM,0.506 µM,17 µM,2.6 µM,24.8 µM,0.79 µM,> 100 µM,0.704 µM,16.9 µM,4.91 µM,21.8 µM,0.467 µM,15 µM,35.1 µM,> 100 µM
COc1ccc(/C=C/C=C(/C#N)C(N)=S)cc1,28.3 µM,> 100 µM,21.3 µM,89.4 µM,29.5 µM,> 100 µM,21.6 µM,77.1 µM,28.7 µM,> 100 µM,14 µM,30.1 µM,28 µM,> 100 µM,25.2 µM,67.7 µM,28.5 µM,> 100 µM,21.6 µM,45.2 µM
CCOc1ccc(S(=O)(=O)/N=C2\C=C(SCC(=O)O)C(=O)c3ccccc32)cc1,2.14 µM,4.34 µM,2.8 µM,10.3 µM,1.64 µM,3.68 µM,1.75 µM,3.63 µM,2.81 µM,14.2 µM,1.8 µM,7.23 µM,2.95 µM,12.2 µM,2.62 µM,5.8 µM,3.1 µM,9.23 µM,4.13 µM,15.8 µM
Fc1cccc(COc2ccc(Nc3ncncc3C#Cc3ccccc3)cc2Cl)c1,> 24 µM,> 25 µM,> 25 µM,> 25 µM,> 25 µM,> 25 µM,> 25 µM,> 25 µM,> 25 µM,> 25 µM,> 25 µM,> 25 µM,> 25 µM,> 25 µM,> 25 µM,> 25 µM,> 25 µM,> 25 µM,21.6 µM,> 25 µM
NC(CO)Cc1cnc[nH]1 (stereo not drawn),> 100 µM,> 100 µM,> 100 µM,> 100 µM,> 100 µM,> 100 µM,> 100 µM,> 100 µM,> 100 µM,> 100 µM,–,> 10 µM,> 100 µM,> 100 µM,> 100 µM,> 100 µM,> 100 µM,> 100 µM,> 100 µM,> 100 µM
O=C(Nc1cccc(-n2ccc3c(NC(=O)c4ccccc4)nccc32)c1)c1cccc(C(F)(F)F)c1,0.0844 µM,> 46.9 µM,0.0341 µM,1.4 µM,0.0362 µM,–,0.0172 µM,0.043 µM,0.0685 µM,> 46.2 µM,0.0187 µM,0.0442 µM,0.0709 µM,12.4 µM,0.0547 µM,14.3 µM,0.0402 µM,6.16 µM,0.312 µM,16 µM
N#CC(=C1SCS1)[N+](=O)[O-],3.55 µM,71.1 µM,3.29 µM,14.2 µM,1.31 µM,17.8 µM,1.48 µM,16.9 µM,7.96 µM,34.8 µM,1.63 µM,3.83 µM,3.64 µM,20.1 µM,6.7 µM,20.7 µM,2.37 µM,10.8 µM,6.04 µM,24.3 µM
CC(C)(C)OC(=O)NC(Cc1ccccc1)C(=O)OCN1C(=O)C2C3C=CC(C2C1=O)C1C2C(=O)N(COC(=O)C(Cc4ccccc4)NC(=O)OC(C)(C)C)C(=O)C2C31 (stereo not drawn),–,97.4 µM,–,> 100 µM,–,> 100 µM,–,> 100 µM,–,> 100 µM,–,> 64.2 µM,–,> 88.9 µM,–,98.5 µM,–,> 100 µM,–,> 87.9 µM
Cc1nn(-c2ccc(F)cc2)c2ncnc(Nc3ccc(NC(=O)Nc4ccc(Cl)c(C(F)(F)F)c4)cc3)c12,2.66 µM,11.2 µM,2.66 µM,10.9 µM,2.11 µM,6.67 µM,3.26 µM,12.6 µM,1.91 µM,4.6 µM,1.86 µM,5.98 µM,3.55 µM,21.8 µM,2.37 µM,5.66 µM,1.49 µM,3.62 µM,1.65 µM,4.17 µM
C=CC(=O)N[C@H]1C=C(C)c2c(-c3cnc4ccccc4c3)c3c(N)ncnc3n2C1,0.568 µM,12.2 µM,19.5 µM,45.6 µM,21.1 µM,> 100 µM,17.8 µM,67 µM,19.6 µM,54.5 µM,2.68 µM,11.7 µM,5.81 µM,72.9 µM,13.4 µM,35.2 µM,21.4 µM,68.2 µM,0.61 µM,11.5 µM
COC(=O)C1OC(O[C@H]2CCC3(C)C(CCC4(C)C3CC=C3C5CC(C)(C)CCC5(C(=O)O)CC[C@]34C)C2(C)C)C(O)C(OC2OC(CO)C(O)C(O)C2O)C1O (stereo partly drawn),20.1 µM,> 33.3 µM,8.83 µM,28.9 µM,9.92 µM,26.4 µM,13.3 µM,> 33.3 µM,6.46 µM,11.9 µM,11.3 µM,> 33.3 µM,7.56 µM,17.1 µM,11.9 µM,> 33.3 µM,6.08 µM,10.9 µM,> 33.3 µM,> 33.3 µM
CCN1CCN(c2nc(NCCCNc3ccnc4cc(Cl)ccc34)c3ccccc3n2)CC1,2.36 µM,10.9 µM,2.74 µM,11.4 µM,1.93 µM,11.1 µM,1.92 µM,3.53 µM,4.29 µM,16.9 µM,1.51 µM,3.29 µM,2.59 µM,10.7 µM,2.14 µM,4.88 µM,2.66 µM,7.17 µM,1.49 µM,2.97 µM
O=C(Nc1nc2ccccc2s1)OCC(F)(F)F,> 100 µM,> 100 µM,> 100 µM,> 100 µM,> 100 µM,> 100 µM,> 100 µM,> 100 µM,> 100 µM,> 100 µM,> 100 µM,> 100 µM,> 100 µM,> 100 µM,> 100 µM,> 100 µM,> 100 µM,> 100 µM,45.6 µM,> 100 µM
CC(C)(C)OC(=O)n1cc(CNC(=S)Nc2ccccc2)c2ccccc21,27.6 µM,> 100 µM,5.34 µM,18.4 µM,9.02 µM,48 µM,12.2 µM,30.1 µM,10.7 µM,24.4 µM,19.3 µM,43.2 µM,11.4 µM,33.1 µM,36.3 µM,> 100 µM,4.18 µM,16 µM,26.5 µM,> 100 µM
Cc1ccn2c3c(c(C(=O)O)c2c1)C(=O)c1ccccc1C3=O,> 42.1 µM,> 100 µM,9.31 µM,> 100 µM,6.52 µM,97.2 µM,1.57 µM,3.05 µM,1.74 µM,5.88 µM,10.4 µM,> 100 µM,> 100 µM,> 100 µM,> 100 µM,> 100 µM,15.7 µM,> 100 µM,25.8 µM,> 100 µM
CCCCCCCCCCCCCC(=S)NCCCC[C@H](NC(=O)OCc1ccccc1)C(=O)Nc1ccccc1,5.87 µM,> 100 µM,4.33 µM,> 100 µM,4.4 µM,> 100 µM,5.3 µM,> 100 µM,4.14 µM,> 100 µM,5.91 µM,> 100 µM,5.84 µM,> 100 µM,3.48 µM,26.9 µM,3.21 µM,> 100 µM,2.39 µM,> 100 µM
